Experimental data taken from patent US20080193943A1, “Companion diagnostic assays for cancer therapy” (ABBOTT LABORATORIES, priority 2006, published 2008).

Tests used:
DMS 53 = test: sensitivity of SCLC cell line to ABT-737; format: cell-based; conditions: Homo sapiens; DMS 53 SCLC cell line; read-out: sensitivity to ABT-737 (EC50 class)
Method: (§1) The following SCLC cell lines were obtained from ATCC (Manassis, Va.): NCI-H889, NCI-H1963, NCI-H1417, NCI-H146, NCI-H187, DMS53, NCI-H510, NCI-H1209, NCI-H526, NCI-H211, NCI-H345, NCI-H524, NCI-H69, NCI-H748, DMS79, NCI-H711, SHP77, NCI-446, NCI-H1048, NCI-H82, NCI-H196, SW1271, H69AR. All cells were cultured in the ATCC recommended media at 37° C. in a humidified atmosphere containing 5% CO2. Genomic DNA was isolated from the cell lines using a DNAeasy kit (Qiagen, Valencia, Calif.).
(§2) The 23 SCLC cell lines were tested for sensitivity to ABT-737 using the procedure described in Oltersdorf, T., “An inhibitor of Bcl-2 family proteins induces regression of solid tumours”, Nature, 435: 677-681, 2005, with a cell line classified as sensitive if its EC50<1 μM and as resistant if its EC50>10 μM. The sensitive cell line group consisted of NCI-H889, NCI-H1963, NCI-H1417, NCI-H146, NCI-H187, DMS 53, NCI-H510, NCI-H209, NCI-H526, NCI-H211, NCI-H345, and NCI-H524 and the resistant cell line group was comprised of NCI-H82, NCI-H196, SW1271, and H69AR.

H69AR = test: sensitivity of SCLC cell line to ABT-737; format: cell-based; conditions: Homo sapiens, read-out: sensitivity to ABT-737 (EC50 class)
Method: as §1, §2

NCI-H1417 = test: sensitivity of SCLC cell line to ABT-737; format: cell-based; conditions: Homo sapiens, read-out: sensitivity to ABT-737 (EC50 class)
Method: as §1, §2

NCI-H146 = test: sensitivity of SCLC cell line to ABT-737; format: cell-based; conditions: Homo sapiens, read-out: sensitivity to ABT-737 (EC50 class)
Method: as §1, §2

NCI-H187 = test: sensitivity of SCLC cell line to ABT-737; format: cell-based; conditions: Homo sapiens, read-out: sensitivity to ABT-737 (EC50 class)
Method: as §1, §2

NCI-H1963 = test: sensitivity of SCLC cell line to ABT-737; format: cell-based; conditions: Homo sapiens, read-out: sensitivity to ABT-737 (EC50 class)
Method: as §1, §2

NCI-H196 = test: sensitivity of SCLC cell line to ABT-737; format: cell-based; conditions: Homo sapiens, read-out: sensitivity to ABT-737 (EC50 class)
Method: as §1, §2

NCI-H209 = test: sensitivity of SCLC cell line to ABT-737; format: cell-based; conditions: Homo sapiens, read-out: sensitivity to ABT-737 (EC50 class)
Method: as §1, §2

NCI-H211 = test: sensitivity of SCLC cell line to ABT-737; format: cell-based; conditions: Homo sapiens, read-out: sensitivity to ABT-737 (EC50 class)
Method: as §1, §2

NCI-H345 = test: sensitivity of SCLC cell line to ABT-737; format: cell-based; conditions: Homo sapiens, read-out: sensitivity to ABT-737 (EC50 class)
Method: as §1, §2

NCI-H510 = test: sensitivity of SCLC cell line to ABT-737; format: cell-based; conditions: Homo sapiens, read-out: sensitivity to ABT-737 (EC50 class)
Method: as §1, §2

NCI-H524 = test: sensitivity of SCLC cell line to ABT-737; format: cell-based; conditions: Homo sapiens, read-out: sensitivity to ABT-737 (EC50 class)
Method: as §1, §2

NCI-H526 = test: sensitivity of SCLC cell line to ABT-737; format: cell-based; conditions: Homo sapiens, read-out: sensitivity to ABT-737 (EC50 class)
Method: as §1, §2

NCI-H82 = test: sensitivity of SCLC cell line to ABT-737; format: cell-based; conditions: Homo sapiens, read-out: sensitivity to ABT-737 (EC50 class)
Method: as §1, §2

NCI-H889 = test: sensitivity of SCLC cell line to ABT-737; format: cell-based; conditions: Homo sapiens, read-out: sensitivity to ABT-737 (EC50 class)
Method: as §1, §2

SW1271 = test: sensitivity of SCLC cell line to ABT-737; format: cell-based; conditions: Homo sapiens, read-out: sensitivity to ABT-737 (EC50 class)
Method: as §1, §2

solid tumors = conditions: from Oltersdorf, Nature 435: 677-681, 2005; cited from earlier work
[1] = tested on: SCLC and lymphoma cell lines; conditions: from Oltersdorf, Nature 435: 677-681, 2005; cited from earlier work

CN(C)CC[C@H](CSc1ccccc1)Nc1ccc(S(=O)(=O)NC(=O)c2ccc(N3CCN(Cc4ccccc4-c4ccc(Cl)cc4)CC3)cc2)cc1[N+](=O)[O-] [ABT-737, N-(4-(4-((4′-chloro(1,1′-biphenyl)-2-yl)methyl)piperazin-1-yl)benzoyl)-4-(((1R)-3-(dimethylamino)-1-((phenylsulfanyl)methyl)propyl)amino)-3-nitrobenzenesulfonamide]
EC50 (DMS 53): < 1000 nM
EC50 (H69AR): > 10000 nM
EC50 (NCI-H1417): < 1000 nM
EC50 (NCI-H146): < 1000 nM
EC50 (NCI-H187): < 1000 nM
EC50 (NCI-H1963): < 1000 nM
EC50 (NCI-H196): > 10000 nM
EC50 (NCI-H209): < 1000 nM
EC50 (NCI-H211): < 1000 nM
EC50 (NCI-H345): < 1000 nM
EC50 (NCI-H510): < 1000 nM
EC50 (NCI-H524): < 1000 nM
EC50 (NCI-H526): < 1000 nM
EC50 (NCI-H82): > 10000 nM
EC50 (NCI-H889): < 1000 nM
EC50 (SW1271): > 10000 nM
effect on solid tumors (solid tumors): induce regression of solid tumors
potency against a diverse panel of human cancer cell lines [1]: selective potency against SCLC and lymphoma cell lines
